Data on nine molecules can be found in US5015647A, “Method for treating viral infections” (Burroughs Wellcome Co., priority 1989, dated 1991).

Structures are written as SMILES.

Assay [1] addresses T1, adenosine (purine) receptors (Cavia porcellus, UniProt P47745).
T1 construct: Ilea were removed from sacrificed guinea pigs and placed in organ baths; from tissue; host or cells: guinea pig ileum
T1 sequence (P47745 1-326): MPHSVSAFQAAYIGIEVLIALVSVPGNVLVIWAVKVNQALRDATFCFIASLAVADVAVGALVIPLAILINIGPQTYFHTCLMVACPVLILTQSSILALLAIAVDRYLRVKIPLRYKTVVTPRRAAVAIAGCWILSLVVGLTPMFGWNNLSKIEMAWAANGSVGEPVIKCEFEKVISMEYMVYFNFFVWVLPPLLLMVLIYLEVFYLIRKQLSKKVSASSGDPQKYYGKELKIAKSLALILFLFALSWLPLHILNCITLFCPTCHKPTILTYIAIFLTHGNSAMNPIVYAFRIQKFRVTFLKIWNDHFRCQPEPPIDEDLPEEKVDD
The assay is described as follows: guinea pig ileum twitch test, antagonism of purine receptors (agonist 2-chloroadenosine). Particulars: slope in parentheses after pA2. The procedure: Accordingly, a representative number of compounds of the present invention were tested for their ability to antagonise the purine receptors using the guinea pig ileum test system.
Ilea were removed from sacrificed guinea pigs and placed in organ baths containing oxygenated Krebs-Henseleit buffer. After equilibration, the ilea were stimulated to contract (twitch contraction) using an electrical field-stimulus of 0.1 Hz, 0.5 ms duration and maximal voltage. Under these conditions, the twitch contraction results from the release of acetylcholine.
Concentration response curves to the purine agonist, 2-chloroadenosine, were determined first in the absence and then in the presence of multiple concentrations of the compounds of the invention. One concentration of each compound was used per tissue. Quantification of purine receptor antagonism was accomplished using the Schild regression technique, i.e. plots of log (dose-ratio-1) vs log compound concentration, and the pA2 determined by regression of the data points to the x-intercept, where log (dose-ratio-1) is zero.

For a further assay, the system named is HIV. The assay is described as follows: anti-HIV activity, in-vitro assay system. It counts as cell-based. More on the design: key to ED50 (expressed as active (+) or very active (++)): +: active; ++: very active. Particulars: for EC50: Human immunodeficiency virus 1, 50% effective dose estimated, read-out: μM ED50; for EC50 / ED50 (expressed as active (+) or very active (++)): in vitro anti-HIV; for ED50 (expressed as active (+) or very active (++)): grade. How it is done: The anti-HIV activity of various compounds was tested using an in-vitro assay system as described in H Mitsuya et al; (Proc Natl. Acad.Sci. USA Vol 82 pp 7096-7100, October 1985)

For the molecule `CCCn1c(=O)c2nc(-c3ccc(/C=C/C(=O)O)cc3)[nH]c2n(CCC)c1=O` [Example 6, (E)-4-(1,2,3,6-tetrahydro-2,6-dioxo-1,3-dipropyl-9H-purin-8-yl)cinnamic acid], the “slope (Schild regression)” value in assay [1] turned out to be 0.9. As to `CCCn1c(=O)n(C)c(=O)c2nc(-c3ccc(/C=C/C(=O)O)cc3)[nH]c21` [Example 11, (E)-4-(1,2,3,6-tetrahydro-1-methyl-2,6-dioxo-3-propyl-9H-purin-8-yl)cinnamic acid], the “slope (Schild regression)” value in assay [1] is 1.0. As for `CCCCn1c(=O)c2nc(-c3ccc(/C=C/C(=O)O)cc3)[nH]c2n(CCCC)c1=O` [Example 14, (E)-4-(1,3-dibutyl-1,2,3,6-tetrahydro-2,6-dioxo-9H-purin-8-yl)cinnamic acid], in the assay with HIV, the EC50 was 30 µM and the “ED50 (expressed as active (+) or very active (++))” value (from here on “ED50”) is recorded as “+”. The “slope (Schild regression)” value in assay [1] is 1.0. Consider `O=C(O)/C=C/c1ccc(-c2nc3c(=O)n(Cc4ccccc4)c(=O)n(Cc4ccccc4)c3[nH]2)cc1` [Example 15, (E)-4-(1,3-dibenzyl-1,2,3,6-tetrahydro-2,6-dioxo-9H-purin-8yl) cinnamic acid], for which, in the assay with HIV, the EC50 is 3 to 15 µM and the “ED50” value is “++”. In the assay on HIV (against AIDV / retroviruses, statement in words, listed as compound 14), the “antiviral / anti-retroviral activity, in words” value is reported as “especially potent activity against AIDV”. Moreover, in assay [1], the “slope (Schild regression)” value is recorded as 0.9.

`Cn1c(=O)c2nc(-c3ccc(/C=C/C(=O)O)cc3)[nH]c2n(Cc2ccccc2)c1=O` [Example 18, (E)-4-(3-benzyl-1,2,3,6-tetrahydro-1-methyl-2,6-dioxo-9H-purin-8yl) cinnamic acid]: the “slope (Schild regression)” value in assay [1] is 0.9. Consider `CC(C)Cn1c(=O)c2nc(-c3ccc(/C=C/C(=O)O)cc3)[nH]c2n(CC(C)C)c1=O` [Example 19, (E)-4-(1,2,3,6-tetrahydro-1,3-diisobutyl-2,6-dioxo-9H-purin-8-yl)cinnamic acid], for which the “slope (Schild regression)” value in assay [1] came out at 1.0. Regarding `CCCn1c(=O)n(Cc2ccccc2)c(=O)c2nc(-c3ccc(/C=C/C(=O)O)cc3)[nH]c21` [Example 25, (E)-4-(1-Benzyl-1,2,3,6-tetrahydro-2,6-dioxo-3-propyl-9H-purin-8-yl)cinnamic acid], in the assay with HIV, the EC50 was 30 µM and the “ED50” value is reported as “+”. On the same counts, the results for `CCCn1c(=O)c2nc(-c3ccc(/C=C/C(=O)O)cc3)[nH]c2n(Cc2ccccc2)c1=O` [Example 26, (E)-4-(3-Benzyl-1,2,3,6-tetrahydro-2,6dioxo-1-propyl-9H-purin-8-yl)cinnamicacid] are 30 µM and “+”. For the molecule `Cn1c(=O)c2[nH]cnc2n(C)c1=O` [THEOPHYLLINE, 1,3-dimethylxanthine, reference compound], the “slope (Schild regression)” value in assay [1] came out at 1.1.
